Values of other authors in patent US12708613B2, “Methods for improving physical exercise performance” (NOMIO NUTRITION AB, priority 2020, dated 2026).

Tested on: mice

Question: For `C[S+]([O-])CCCCN=C=S` (centres unmarked) [sulforaphane, 1-Isothiocyanato-4-(methanesulfinyl)butane], which “effect on glucose levels” value (mice models) is on record?
Answer: no effect

Question: What about the endurance (mice, injected (intraperitoneally, 25 mg/kg body weight)) of the same compound?
Answer: improved endurance
